Reference: ChEMBL document CHEMBL5393457, “Combined inhibition of amino acid transporters for inhibiting human plasmacytoid dendritic cell activity during autoimmunity” (2022)
Calls of active or inactive are those of the source. The rule behind the calls is not given here.

How the values were obtained:
[1] = molecular target: Tyrosine-protein kinase JAK2 (Homo sapiens) (UniProt O60674); experiment: Inhibition of JAK2 in CpG-A and GM-CSF-activated human plasmacytoid dendritic cells at 1 uM assessed as decrease in TNF production; type: cell-based; details: Plasmacytoid dendritic cell
[2] = molecular target: Tyrosine-protein kinase JAK2 (Homo sapiens) (UniProt O60674); experiment: Inhibition of JAK2 in CpG-A and GM-CSF-activated human plasmacytoid dendritic cells at 1 uM assessed as decrease in mTORC1 activity; type: cell-based; details: Plasmacytoid dendritic cell
[3] = molecular target: Tyrosine-protein kinase JAK2 (Homo sapiens) (UniProt O60674); experiment: Inhibition of JAK2 in CpG-A and GM-CSF-activated human plasmacytoid dendritic cells at 1 uM assessed as decrease in kynurenine uptake; type: cell-based; details: Plasmacytoid dendritic cell
[4] = molecular target: Tyrosine-protein kinase JAK2 (Homo sapiens) (UniProt O60674); experiment: Inhibition of JAK2 in CpG-A and GM-CSF-activated human plasmacytoid dendritic cells at 1 uM assessed as decrease in IFN-alpha production; type: cell-based; details: Plasmacytoid dendritic cell
[5] = molecular target: Large neutral amino acids transporter small subunit 1 (Homo sapiens) (UniProt Q01650); experiment: Inhibition of human LAT1 at 100 uM relative to control
[6] = molecular target: T1, Cystine/glutamate transporter (Homo sapiens) (UniProt Q9UPY5); experiment: Inhibition of XCT in CpG-A-activated human plasmacytoid dendritic cells at 1 uM assessed as decrease in IFN-alpha production; type: cell-based; details: Plasmacytoid dendritic cell
T1 sequence (whole entry): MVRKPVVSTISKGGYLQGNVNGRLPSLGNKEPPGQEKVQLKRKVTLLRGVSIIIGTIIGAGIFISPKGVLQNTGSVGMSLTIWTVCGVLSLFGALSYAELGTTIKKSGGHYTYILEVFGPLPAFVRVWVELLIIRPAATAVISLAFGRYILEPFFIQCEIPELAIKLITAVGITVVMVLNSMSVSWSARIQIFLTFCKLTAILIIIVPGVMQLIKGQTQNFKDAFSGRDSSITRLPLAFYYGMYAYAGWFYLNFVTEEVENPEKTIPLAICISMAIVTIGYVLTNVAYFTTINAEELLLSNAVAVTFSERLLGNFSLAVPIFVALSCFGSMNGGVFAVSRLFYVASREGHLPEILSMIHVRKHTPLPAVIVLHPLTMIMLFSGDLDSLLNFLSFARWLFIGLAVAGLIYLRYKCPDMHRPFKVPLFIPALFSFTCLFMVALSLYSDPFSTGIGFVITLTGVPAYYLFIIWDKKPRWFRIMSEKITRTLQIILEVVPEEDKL

[7] = molecular target: T1, Cystine/glutamate transporter (Homo sapiens); experiment: Inhibition of XCT in IL-3 CpG-A-activated human plasma at 10 uM assessed as decrease in pDC activation
[8] = molecular target: T1, Cystine/glutamate transporter (Homo sapiens); experiment: Inhibition of XCT in CpG-A-activated human plasmacytoid dendritic cells at 10 uM assessed as decrease in MYO1E expression; type: cell-based; details: Plasmacytoid dendritic cell
[9] = molecular target: T1, Cystine/glutamate transporter (Homo sapiens); experiment: Inhibition of XCT in CpG-A-activated human plasmacytoid dendritic cells at 10 uM assessed as decrease in ENPP2 expression; type: cell-based; details: Plasmacytoid dendritic cell
[10] = molecular target: T1, Cystine/glutamate transporter (Homo sapiens); experiment: Inhibition of XCT in CpG-A-activated human plasmacytoid dendritic cells at 5 uM assessed as decrease in IFN-alpha production; type: cell-based; details: Plasmacytoid dendritic cell
[11] = molecular target: T1, Cystine/glutamate transporter (Homo sapiens); experiment: Inhibition of XCT in CpG-A-activated human plasmacytoid dendritic cells at 5 uM assessed as decrease in TNF production; type: cell-based; details: Plasmacytoid dendritic cell
[12] = molecular target: T1, Cystine/glutamate transporter (Homo sapiens); experiment: Inhibition of XCT in CpG-A-activated human plasmacytoid dendritic cells at 1 uM assessed as decrease in TNF production; type: cell-based; details: Plasmacytoid dendritic cell
[13] = molecular target: T1, Cystine/glutamate transporter (Homo sapiens); experiment: Inhibition of XCT in CpG-A-activated human plasmacytoid dendritic cells at 5 uM assessed as decrease in S6 phosphorylation; type: cell-based; details: Plasmacytoid dendritic cell
[14] = molecular target: T1, Cystine/glutamate transporter (Homo sapiens); experiment: Inhibition of XCT in CpG-A-activated human plasmacytoid dendritic cells at 5 uM assessed as decrease in kynurenine uptake; type: cell-based; details: Plasmacytoid dendritic cell
[15] = tested on: Plasmacytoid dendritic cell; experiment: Inhibition of F1F0-ATP synthase in human plasmacytoid dendritic cells at 1 uM assessed as decrease in TNF production; type: cell-based
[16] = tested on: Plasmacytoid dendritic cell; experiment: Inhibition of F1F0-ATP synthase in CpG-A-stimulated human plasmacytoid dendritic cells at 1 uM assessed as reduction in TNF production in presence of 10 uM heptelidic acid; type: cell-based
[17] = tested on: Plasmacytoid dendritic cell; experiment: Inhibition of F1F0-ATP synthase in human plasmacytoid dendritic cells at 1 uM assessed as decrease in IFN-alpha production; type: cell-based
[18] = tested on: Plasmacytoid dendritic cell; experiment: Inhibition of F1F0-ATP synthase in CpG-A-stimulated human plasmacytoid dendritic cells at 1 uM assessed as reduction in IFN-alpha production in presence of 10 uM heptelidic acid; type: cell-based
[19] = tested on: Plasmacytoid dendritic cell; experiment: Inhibition of SLC7A5/SLC3A2 in CpG-A-stimulated human plasmacytoid dendritic cells at 10 uM assessed as decrease in kynurenine transport; type: cell-based
[20] = molecular target: Glyceraldehyde-3-phosphate dehydrogenase (Homo sapiens) (UniProt P04406); experiment: Inhibition of GAPDH in CpG-A-stimulated human plasmacytoid dendritic cells at 10 uM assessed as reduction in overall protein synthesis; type: cell-based; details: Plasmacytoid dendritic cell
[21] = molecular target: Glyceraldehyde-3-phosphate dehydrogenase (Homo sapiens) (UniProt P04406); experiment: Inhibition of GAPDH in CpG-A-stimulated human plasmacytoid dendritic cells at 10 uM assessed as reduction in IFNa-alpha production; type: cell-based; details: Plasmacytoid dendritic cell
[22] = molecular target: Glyceraldehyde-3-phosphate dehydrogenase (Homo sapiens) (UniProt P04406); experiment: Inhibition of GAPDH in CpG-A-stimulated human plasmacytoid dendritic cells at 10 uM assessed as reduction in secreted lactate levels; type: cell-based; details: Plasmacytoid dendritic cell
[23] = molecular target: Glyceraldehyde-3-phosphate dehydrogenase (Homo sapiens) (UniProt P04406); experiment: Inhibition of GAPDH in CpG-A-stimulated human plasmacytoid dendritic cells at 10 uM assessed as reduction in TNF production; type: cell-based; details: Plasmacytoid dendritic cell
[24] = molecular target: Glyceraldehyde-3-phosphate dehydrogenase (Homo sapiens) (UniProt P04406); experiment: Inhibition of GAPDH in CpG-A-stimulated human plasmacytoid dendritic cells at 10 uM assessed as reduction in TNF production in presence of 1 uM oligomycin; type: cell-based; details: Plasmacytoid dendritic cell
[25] = molecular target: Glyceraldehyde-3-phosphate dehydrogenase (Homo sapiens) (UniProt P04406); experiment: Inhibition of GAPDH in CpG-A-stimulated human plasmacytoid dendritic cells at 10 uM assessed as reduction in IFN-alpha production in presence of 1 uM oligomycin; type: cell-based; details: Plasmacytoid dendritic cell
[26] = molecular target: T1, Cystine/glutamate transporter (Homo sapiens); experiment: Inhibition of XCT in CpG-A-activated human plasmacytoid dendritic cells at 25 to 100 uM assessed as decrease in TNF production in presence of 100 uM sulfasalazine; type: cell-based; details: Plasmacytoid dendritic cell, dose 25-100 µM
[27] = molecular target: Tyrosine-protein kinase JAK2 (Homo sapiens) (UniProt O60674); experiment: Inhibition of JAK2 in IL3- and CpG-A-activated human plasmacytoid dendritic cells at 20 nM assessed as decrease in ENPP2/IFNA2 expression; type: cell-based; details: Plasmacytoid dendritic cell
[28] = molecular target: T2, mTORC1 (Homo sapiens) (UniProt P42345+Q8N122+Q9BVC4); details: Plasmacytoid dendritic cell, dose 250.0 nM
Description: Inhibition of mTORC1 in CpG-A-stimulated human plasmacytoid dendritic cells at 250 nM assessed as decrease in lactate release

[29] = molecular target: T2, mTORC1 (Homo sapiens); details: Plasmacytoid dendritic cell, dose 20.0 nM
Description: Inhibition of mTORC1 in CpG-A-stimulated human plasmacytoid dendritic cells at 20 nM assessed as decrease in lactate release

[30] = molecular target: Tyrosine-protein kinase JAK2 (Homo sapiens) (UniProt O60674); experiment: Inhibition of JAK2 in IL3- and CpG-A-activated human plasmacytoid dendritic cells at 20 nM assessed as decrease in MYO1E/IFNA2 expression; type: cell-based; details: Plasmacytoid dendritic cell
[31] = molecular target: Tyrosine-protein kinase JAK2 (Homo sapiens) (UniProt O60674); experiment: Inhibition of JAK2 in TLR9-activated human plasmacytoid dendritic cells at 20 nM assessed as decrease in CpG-A stimulated SLC7A11 expression; type: cell-based; details: Plasmacytoid dendritic cell

Sequence of Glyceraldehyde-3-phosphate dehydrogenase (Homo sapiens) (P04406 2-335 limits assumed): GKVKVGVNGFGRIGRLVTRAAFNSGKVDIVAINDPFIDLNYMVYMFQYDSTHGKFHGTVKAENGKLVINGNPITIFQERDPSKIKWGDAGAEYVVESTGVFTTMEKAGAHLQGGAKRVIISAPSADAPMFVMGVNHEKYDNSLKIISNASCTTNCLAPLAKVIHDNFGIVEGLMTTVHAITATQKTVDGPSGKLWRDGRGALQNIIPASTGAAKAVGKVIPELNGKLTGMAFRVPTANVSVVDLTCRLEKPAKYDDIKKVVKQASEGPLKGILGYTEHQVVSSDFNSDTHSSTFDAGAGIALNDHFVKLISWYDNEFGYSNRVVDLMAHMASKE
Sequence of Tyrosine-protein kinase JAK2 (Homo sapiens) (O60674 whole entry): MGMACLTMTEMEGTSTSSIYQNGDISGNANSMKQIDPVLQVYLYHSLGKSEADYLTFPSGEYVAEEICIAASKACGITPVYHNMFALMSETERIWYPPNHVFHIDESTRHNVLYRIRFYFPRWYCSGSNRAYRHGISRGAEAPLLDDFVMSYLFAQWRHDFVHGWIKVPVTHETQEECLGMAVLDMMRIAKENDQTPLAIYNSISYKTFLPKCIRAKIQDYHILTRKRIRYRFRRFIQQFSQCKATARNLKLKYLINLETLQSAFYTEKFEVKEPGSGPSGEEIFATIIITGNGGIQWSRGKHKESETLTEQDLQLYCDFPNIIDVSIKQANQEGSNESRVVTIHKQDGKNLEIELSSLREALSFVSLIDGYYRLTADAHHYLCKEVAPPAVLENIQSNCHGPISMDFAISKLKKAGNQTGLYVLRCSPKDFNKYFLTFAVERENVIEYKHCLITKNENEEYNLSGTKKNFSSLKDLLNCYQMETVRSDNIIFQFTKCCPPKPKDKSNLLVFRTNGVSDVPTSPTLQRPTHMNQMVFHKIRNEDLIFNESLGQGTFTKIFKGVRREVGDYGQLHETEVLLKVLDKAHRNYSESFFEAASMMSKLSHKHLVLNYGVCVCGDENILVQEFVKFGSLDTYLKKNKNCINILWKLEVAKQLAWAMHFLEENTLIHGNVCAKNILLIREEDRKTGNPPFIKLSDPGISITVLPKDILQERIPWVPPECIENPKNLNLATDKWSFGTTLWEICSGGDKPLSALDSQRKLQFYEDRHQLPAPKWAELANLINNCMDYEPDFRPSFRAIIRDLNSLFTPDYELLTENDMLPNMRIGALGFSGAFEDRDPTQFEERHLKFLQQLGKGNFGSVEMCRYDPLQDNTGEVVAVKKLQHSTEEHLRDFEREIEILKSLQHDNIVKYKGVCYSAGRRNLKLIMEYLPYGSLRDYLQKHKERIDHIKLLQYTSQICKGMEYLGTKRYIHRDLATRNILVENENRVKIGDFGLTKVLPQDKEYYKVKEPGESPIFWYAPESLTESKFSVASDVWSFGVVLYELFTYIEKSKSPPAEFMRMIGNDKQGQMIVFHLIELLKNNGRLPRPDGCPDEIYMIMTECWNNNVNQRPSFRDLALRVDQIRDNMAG
T2 sequence (Q8N122 whole entry, looked up, other chains not shown): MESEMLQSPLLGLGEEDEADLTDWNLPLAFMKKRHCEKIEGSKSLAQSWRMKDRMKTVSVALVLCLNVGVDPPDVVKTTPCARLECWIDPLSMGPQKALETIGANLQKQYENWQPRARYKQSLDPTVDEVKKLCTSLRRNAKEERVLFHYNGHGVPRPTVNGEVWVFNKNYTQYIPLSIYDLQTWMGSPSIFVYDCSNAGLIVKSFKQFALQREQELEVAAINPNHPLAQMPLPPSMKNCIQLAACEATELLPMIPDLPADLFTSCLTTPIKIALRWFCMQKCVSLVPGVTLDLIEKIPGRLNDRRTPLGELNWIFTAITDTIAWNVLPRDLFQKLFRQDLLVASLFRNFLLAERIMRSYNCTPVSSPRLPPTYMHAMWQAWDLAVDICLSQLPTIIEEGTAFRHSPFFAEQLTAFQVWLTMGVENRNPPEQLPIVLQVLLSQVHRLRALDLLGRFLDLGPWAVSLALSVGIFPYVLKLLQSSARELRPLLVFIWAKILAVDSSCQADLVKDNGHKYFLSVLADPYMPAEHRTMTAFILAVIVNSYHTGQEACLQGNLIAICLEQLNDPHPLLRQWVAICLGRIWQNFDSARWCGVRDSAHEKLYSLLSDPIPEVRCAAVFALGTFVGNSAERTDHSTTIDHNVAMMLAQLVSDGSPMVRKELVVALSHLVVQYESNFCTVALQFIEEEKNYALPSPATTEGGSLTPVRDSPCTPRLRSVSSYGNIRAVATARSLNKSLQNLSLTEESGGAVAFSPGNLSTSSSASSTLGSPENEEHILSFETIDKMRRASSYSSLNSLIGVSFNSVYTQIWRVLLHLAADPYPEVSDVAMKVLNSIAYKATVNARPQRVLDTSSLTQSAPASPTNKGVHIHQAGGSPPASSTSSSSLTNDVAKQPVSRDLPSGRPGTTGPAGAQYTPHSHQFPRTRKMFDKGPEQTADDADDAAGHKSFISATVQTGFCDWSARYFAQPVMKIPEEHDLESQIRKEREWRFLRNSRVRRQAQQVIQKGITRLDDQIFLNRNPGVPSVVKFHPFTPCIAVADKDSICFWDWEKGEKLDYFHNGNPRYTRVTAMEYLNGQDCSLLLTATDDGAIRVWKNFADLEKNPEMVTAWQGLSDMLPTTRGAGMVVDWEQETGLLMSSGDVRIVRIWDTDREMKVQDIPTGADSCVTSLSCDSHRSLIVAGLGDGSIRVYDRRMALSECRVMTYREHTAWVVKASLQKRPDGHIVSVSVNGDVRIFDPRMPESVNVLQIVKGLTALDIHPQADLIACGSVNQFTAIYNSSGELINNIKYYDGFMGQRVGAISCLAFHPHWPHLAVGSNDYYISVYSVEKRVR
T2 sequence (Q9BVC4 whole entry, looked up, other chains not shown): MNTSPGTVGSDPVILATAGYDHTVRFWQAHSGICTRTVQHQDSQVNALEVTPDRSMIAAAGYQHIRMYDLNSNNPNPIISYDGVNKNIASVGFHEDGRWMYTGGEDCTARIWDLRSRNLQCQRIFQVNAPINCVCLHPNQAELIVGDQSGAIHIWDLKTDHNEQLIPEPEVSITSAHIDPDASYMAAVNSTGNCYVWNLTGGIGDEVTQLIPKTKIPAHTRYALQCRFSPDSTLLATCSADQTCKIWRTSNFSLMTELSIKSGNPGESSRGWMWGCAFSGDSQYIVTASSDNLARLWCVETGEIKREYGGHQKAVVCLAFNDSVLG
Sequence of Large neutral amino acids transporter small subunit 1 (Homo sapiens) (Q01650 whole entry): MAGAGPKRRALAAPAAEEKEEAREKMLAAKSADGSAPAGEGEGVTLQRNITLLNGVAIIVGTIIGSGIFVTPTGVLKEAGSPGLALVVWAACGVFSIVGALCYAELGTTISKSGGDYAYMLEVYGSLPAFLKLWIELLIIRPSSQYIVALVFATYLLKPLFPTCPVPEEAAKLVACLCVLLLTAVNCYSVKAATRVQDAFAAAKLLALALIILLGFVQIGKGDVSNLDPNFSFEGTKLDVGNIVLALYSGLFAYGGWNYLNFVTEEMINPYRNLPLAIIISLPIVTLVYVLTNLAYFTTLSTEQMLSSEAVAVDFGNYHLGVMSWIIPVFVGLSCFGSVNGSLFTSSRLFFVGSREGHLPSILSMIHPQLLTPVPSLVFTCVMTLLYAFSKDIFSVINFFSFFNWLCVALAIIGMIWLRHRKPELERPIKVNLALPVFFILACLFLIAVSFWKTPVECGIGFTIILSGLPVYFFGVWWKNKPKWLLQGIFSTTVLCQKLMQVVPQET

Compound: Cc1cc(Nc2nc(N[C@@H](C)c3ncc(F)cn3)ncc2Cl)[nH]n1
- inhibition [1]: Active
- inhibition [2]: Active
- inhibition [3]: Active
- inhibition [4]: Active

Compound: N#Cc1ccc(Cl)cc1/N=c1\ssnc1Cl
- inhibition [5]: > 90%

Compound: CCOc1ccccc1-n1c(C(C)N2CCN(C(=O)COc3ccc(Cl)cc3)CC2)nc2ccccc2c1=O (configuration not stated)
- inhibition [6]: Active
- inhibition [7]: Active
- inhibition [8]: Active
- inhibition [9]: Active
- inhibition [10]: Active
- inhibition [11]: Active
- inhibition [12]: Active
- inhibition [13]: Active
- inhibition [14]: Active

Compound: CC[C@H]1/C=C/C=C/C[C@@H](C)[C@H](O)[C@@](C)(O)C(=O)[C@@H](C)[C@H](O)[C@@H](C)C(=O)[C@@H](C)[C@H](O)[C@@H](C)/C=C/C(=O)O[C@@H]2[C@H](C)[C@H](CC1)O[C@]1(CC[C@H](C)[C@H](C[C@@H](C)O)O1)[C@H]2C
- inhibition [15]: inactive
- inhibition [16]: Active
- inhibition [17]: Active
- inhibition [18]: Active

Compound: NC1(C(=O)O)CC2CCC1C2 (configuration not stated)
- inhibition [19]: Active

Compound: CC(C)[C@H]1CC[C@@]2(CO2)[C@H]2C(=O)OCC(C(=O)O)=C[C@H]12
- inhibition [20]: Active
- inhibition [21]: Active
- inhibition [22]: Active
- inhibition [23]: Active
- inhibition [24]: Active
- inhibition [25]: Active

Compound: CCS(=O)(=O)N1CC(CC#N)(n2cc(-c3ncnc4[nH]ccc34)cn2)C1
- inhibition [26]: Active

Compound: CO[C@H]1CC2CC[C@@H](C)[C@@](O)(O2)C(=O)C(=O)N2CCCC[C@H]2C(=O)O[C@H]([C@H](C)C[C@@H]2CC[C@@H](O)[C@H](OC)C2)CC(=O)[C@H](C)/C=C(\C)[C@@H](O)[C@@H](OC)C(=O)[C@H](C)C[C@H](C)/C=C/C=C/C=C/1C
- inhibition [27]: Active
- inhibition [28]: Active
- inhibition [29]: Active
- inhibition [30]: Active
- inhibition [31]: Active

Compound: N#C/C=N/c1c(SS)c(-c2ccccc2)nn1Cc1ccccc1
- inhibition [5]: > 90%
